Assay results: patent publication US10227324B2 (Shanghai Haiyan Pharmaceutical Technology Co., Ltd., priority 2014, dated 2019)
Read-outs that look alike come from different tables or passages of the source.

Tests used:
Format in all cases: cell-based
[1] = system: Akt phosphorylation (Ser473-p-Akt) in PC-3 cells; assay: Inhibition of p-Akt phosphorylation level in PC-3 cells (cell level fluorescence imaging); conditions: Homo sapiens, read-out: PC-3 cell (IC50/nM)
Experimental: This experiment was performed by cell level fluorescence image processing method.
Triton X-100: 10% aqueous Triton X-100 solution (Sigma T8787-100 mL) was prepared, stored at 4° C. and diluted by 1:100 to give 0.1% Triton X-100 aqueous solution for use in the experiment.
Prodium Iodide (PI): 1 mg/mL (1.5 mM) PI (Sigma P4170) storage solution was prepared with PBS and stored at −25° C. in the dark. For use, the PI storage solution was diluted with PBS by 1:1000 to give a 1.5 μM solution and used in dark.
PC-3 cells in logarithmic growth phase were digested with 0.25% EDTA trypsin. 3000 cells/90 μL were seeded in a 96-well plate (BD 356692) and cultured at 37° C. and 5% CO2. After the cells adhered, 10 μL of the compound to be tested which was gradiently diluted 3 times (0.0046 to 10 μM, 8 concentration points, in duplicate) was added and incubated for 2 hours, followed by addition of 100 μL of 4% paraformaldehyde (DINGGUO AR-0211) and incubated at room temperature for 45 minutes. Then 100 μL of 0.1% Triton X-100 solution was added and incubated for another 30 minutes.
Triton X-100 solution was removed and the cells were rinsed with 200 μl of PBS twice (300 rpm vibration for 1 minute). The blocking solution (1% BSA solution in PBS) (Genview FA016-100G) was added and incubated at room temperature for 2 hours. The plate was rinsed with PBS once (300 rpm, 1 min) and 30 μL of Ser473-p-Akt antibody (cell signaling 4060L) diluted with 0.1% BSA was added and incubated overnight at 4° C. Ser473-p-Akt antibody was removed and the plate was rinsed with PBS twice (300 rpm, 1 minute). 35 μL of Alexa Flour 488 donkey anti-rabbit IgG (Invitrogen A21206) was added and incubated at room temperature for 1.5 hours. The plate was rinsed with PBS twice (300 rpm, 1 minute) and 35 μL of 1.5 μM PI was added and incubated at room temperature for 0.5 h. The fluorescence intensity was measured with Acumen eX3 (TTP LabTech).
10 μM BEZ235 (Selleck S1009) treatment group was negative control and DMSO treatment group was positive control. Inhibition ratio %=[1−(the mean value of the fluorescence intensity of the compound to be tested−the mean value of the fluorescence intensity of the negative control group)/(the mean value of the fluorescence intensity of the positive control group−the mean value of the fluorescence intensity of the negative control group)]×100%

MCF-7 cells = assay: Cell inhibitory activity detected by MTT assay, MCF-7; conditions: Homo sapiens, MCF7, 72 h, read-out: MCF-7 cell (IC50/nM), cell growth inhibition
Outline: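 MCF-7 cells in DMEM + 10% FBS were treated after adherence with compounds at 8 concentrations (0.0046–10 μM) for 72 h at 37 °C, 5% CO2.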

T47D cells = assay: Cell inhibitory activity detected by MTT assay, T47D; conditions: Homo sapiens, T47D, 72 h, read-out: T47D cell (IC50/nM), cell growth inhibition
[2] = Akt phosphorylation in PC-3 cells, 2 hours incubation

COC(C)(C)c1cc(-c2cnc(N)cc2Cl)nc(N2CCOC[C@@H]2C)n1 [Compound S-75]
IC50 [1, 2]: 385 nM
IC50 (MCF-7 cells): 131 nM
IC50 (T47D cells): 249 nM

CC(C)S(=O)(=O)C1(c2cc(-c3cnc(N)cc3C(F)(F)F)nc(N3CCOC[C@@H]3C)n2)CCC1 [Compound S-13, (S)-5-(6-(1-(isopropylsulfonyl)cyclobutyl)-2-(3-methylmorpholino)pyrimidin-4-yl)-4-(trifluoromethyl)pyridin-2-amine]
IC50 [1, 2]: 463 nM
IC50 (MCF-7 cells): 153 nM
IC50 (T47D cells): 244 nM

Nc1cc(F)c(-c2cc(C3(S(=O)(=O)C4CC4)CC3)nc(N3CCOCC3)n2)cn1 [Compound S-88]
IC50 [1, 2]: 349 nM
IC50 (MCF-7 cells): 102 nM
IC50 (T47D cells): 81 nM

CS(=O)(=O)C1(c2cc(N3CCOCC3)nc(-c3cnc(N)cc3C(F)(F)F)n2)CC1 [reference compound]
IC50 [1, 2]: 1020 nM
IC50 (MCF-7 cells): 639 nM
IC50 (T47D cells): 854 nM

Nc1cc(C(F)(F)F)c(-c2cc(C3(S(=O)(=O)c4ccccc4)CCC3)nc(N3CCOCC3)n2)cn1 [Compound S-20]
IC50 (T47D cells): 332 nM

C[C@H]1COCCN1c1nc(-c2cnc(N)nc2)cc(C2(S(C)(=O)=O)CCC2)n1 [Compound S-33]
IC50 [1, 2]: 109 nM
IC50 (MCF-7 cells): 79 nM
IC50 (T47D cells): 120 nM

COC(C)(C)c1cc(-c2cnc(N)cc2C(F)(F)F)nc(N2CCOCC2)n1 [Compound S-71, 5-(6-(2-methoxypropan-2-yl)-2-morpholinopyrimidin-4-yl)-4-(trifluoromethyl) pyridin-2-amine]
IC50 ([1]; PC-3, 2 h): 555 nM
IC50 (MCF-7 cells): 436 nM
IC50 (T47D cells): 165 nM

COC(C)(C)c1cc(-c2cnc(N)cc2Cl)nc(N2CCOCC2)n1 [Compound S-76]
IC50 [1, 2]: 531 nM
IC50 (MCF-7 cells): 66 nM
IC50 (T47D cells): 289 nM

C[C@H]1COCCN1c1nc(-c2cnc(N)cc2Cl)cc(C2(S(C)(=O)=O)CCC2)n1 [Compound S-31]
IC50 [1, 2]: 126 nM
IC50 (MCF-7 cells): 45 nM
IC50 (T47D cells): 73 nM

CS(=O)(=O)C1(c2cc(-c3cnc(N)nc3C(F)(F)F)nc(N3CCOCC3)n2)CC1 [Compound S-46]
IC50 [1, 2]: 131 nM
IC50 (MCF-7 cells): 301 nM
IC50 (T47D cells): 137 nM

CC(C)S(=O)(=O)C1(c2cc(-c3cnc(N)cc3C(F)(F)F)nc(N3CCOCC3)n2)CCC1 [Compound S-19]
IC50 [1, 2]: 575 nM
IC50 (T47D cells): 178 nM

CS(=O)(=O)C1(c2cc(-c3cnc(N)cc3Cl)nc(N3CCOCC3)n2)CC1 [Compound S-37, 4-chloro-5-(6-(1-(methylsulfonyl)cyclopropyl)-2-morpholinopyrimidin-4-yl)pyridin-2-amine]
IC50 [1, 2]: 198 nM
IC50 (MCF-7 cells): 258 nM
IC50 (T47D cells): 202 nM

CCS(=O)(=O)C1(c2cc(-c3cnc(N)cc3C(F)(F)F)nc(N3CCOCC3)n2)CCC1 [Compound S-49, 5-(6-(1-(ethylsulfonyl)cyclobutyl)-2-morpholinopyrimidin-4-yl)-4-(trifluoromethyl)pyridin-2-amine]
IC50 [1, 2]: 382 nM
IC50 (MCF-7 cells): 187 nM
IC50 (T47D cells): 208 nM

C[C@@H]1COCCN1c1nc(-c2cnc(N)cc2Cl)cc(C2(S(C)(=O)=O)CC2)n1 [Compound S-68]
IC50 [1, 2]: 183 nM
IC50 (MCF-7 cells): 94 nM
IC50 (T47D cells): 73 nM

CC(C)(c1cc(-c2cnc(N)cc2Cl)nc(N2CCOCC2)n1)S(C)(=O)=O [Compound S-38, 4-chloro-5-(6-(2-(methylsulfonyl)prop-2-yl)-2-morpholinopyrimidin-4-yl)pyridin-2-amine]
IC50 [1, 2]: 332 nM
IC50 (MCF-7 cells): 180 nM
IC50 (T47D cells): 244 nM

C[C@H]1COCCN1c1nc(-c2cnc(N)cc2C(F)(F)F)cc(C2(S(C)(=O)=O)CCC2)n1 [Compound S-9]
IC50 [1, 2]: 184 nM
IC50 (MCF-7 cells): 78 nM
IC50 (T47D cells): 93 nM

CS(=O)(=O)C(F)(F)c1cc(-c2cnc(N)cc2Cl)nc(N2CCOCC2)n1 [Compound S-54, 4-chloro-5-(6-(difluoro(methylsulfonyl)methyl)-2-morpholinopyrimidin-4-yl)pyridin-2-amine]
IC50 [1, 2]: 488 nM
IC50 (MCF-7 cells): 159 nM
IC50 (T47D cells): 255 nM

C[C@H]1COCCN1c1nc(-c2ccc(N)nc2)cc(C2(S(C)(=O)=O)CCC2)n1 [Compound S-32]
IC50 [1, 2]: 74 nM
IC50 (MCF-7 cells): 73 nM
IC50 (T47D cells): 95 nM

CC(C)(c1cc(-c2cnc(N)cc2F)nc(N2CCOCC2)n1)S(C)(=O)=O [Compound S-81]
IC50 [1, 2]: 215 nM
IC50 (MCF-7 cells): 104 nM
IC50 (T47D cells): 123 nM

C[C@H]1COCCN1c1nc(-c2cnc(N)nc2C(F)(F)F)cc(C2(S(C)(=O)=O)CCC2)n1 [Compound S-30]
IC50 [1, 2]: 101 nM
IC50 (MCF-7 cells): 101 nM
IC50 (T47D cells): 100 nM

CS(=O)(=O)C1(c2cc(-c3cnc(N)cc3F)nc(N3CCOCC3)n2)CC1 [Compound S-82]
IC50 [1, 2]: 369 nM
IC50 (MCF-7 cells): 27 nM
IC50 (T47D cells): 62 nM

C[C@H]1COCCN1c1nc(-c2cnc(N)cc2F)cc(C2(S(C)(=O)=O)CC2)n1 [Compound S-83]
IC50 [1, 2]: 196 nM
IC50 (MCF-7 cells): 11 nM
IC50 (T47D cells): 30 nM

Nc1cc(C(F)(F)F)c(-c2cc(C3(S(=O)(=O)c4ccccc4F)CC3)nc(N3CCOCC3)n2)cn1 [Compound S-58]
IC50 [1, 2]: 367 nM
IC50 (MCF-7 cells): 184 nM
IC50 (T47D cells): 129 nM

C[C@H]1COCCN1c1nc(-c2cnc(N)cc2F)cc(C(C)(C)S(C)(=O)=O)n1 [Compound S-84]
IC50 [1, 2]: 121 nM
IC50 (MCF-7 cells): 15 nM
IC50 (T47D cells): 33 nM

CC(C)S(=O)(=O)C1(c2cc(-c3cnc(N)cc3F)nc(N3CCOCC3)n2)CC1 [Compound S-86]
IC50 [1, 2]: 240 nM
IC50 (MCF-7 cells): 29 nM
IC50 (T47D cells): 69 nM

CC(C)(c1cc(-c2cnc(N)nc2C(F)(F)F)nc(N2CCOCC2)n1)S(C)(=O)=O [Compound S-45]
IC50 [1, 2]: 156 nM
IC50 (MCF-7 cells): 329 nM
IC50 (T47D cells): 163 nM

C[C@@H]1COCCN1c1nc(-c2cnc(N)cc2Cl)cc(C(C)(C)S(C)(=O)=O)n1 [Compound S-67]
IC50 [1, 2]: 187 nM
IC50 (MCF-7 cells): 105 nM
IC50 (T47D cells): 88 nM

CCS(=O)(=O)C1(c2cc(-c3cnc(N)cc3F)nc(N3CCOCC3)n2)CC1 [Compound S-85]
IC50 [1, 2]: 161 nM
IC50 (MCF-7 cells): 25 nM
IC50 (T47D cells): 63 nM

CS(=O)(=O)C1(c2cc(-c3cnc(N)cc3C(F)(F)F)nc(N3CCOCC3)n2)CCCC1 [Compound S-10]
IC50 [1, 2]: 384 nM
IC50 (MCF-7 cells): 340 nM
IC50 (T47D cells): 218 nM

Nc1cc(Cl)c(-c2cc(C3(S(=O)(=O)c4ccccc4F)CC3)nc(N3CCOCC3)n2)cn1 [Compound S-66]
IC50 [1, 2]: 253 nM
IC50 (MCF-7 cells): 212 nM
IC50 (T47D cells): 147 nM

CCS(=O)(=O)C1(c2cc(-c3cnc(N)cc3C(F)(F)F)nc(N3CCOC[C@@H]3C)n2)CCC1 [Compound S-23]
IC50 [1, 2]: 366 nM
IC50 (MCF-7 cells): 246 nM
IC50 (T47D cells): 20 nM

CC(C)S(=O)(=O)C1(c2cc(-c3cnc(N)cc3C(F)(F)F)nc(N3CCOCC3)n2)CC1 [Compound S-18]
IC50 [1, 2]: 430 nM
IC50 (MCF-7 cells): 437 nM
IC50 (T47D cells): 160 nM

C[C@H]1COCCN1c1nc(-c2cnc(N)cc2C(F)(F)F)cc(C(C)(C)S(C)(=O)=O)n1 [Compound S-41]
IC50 [1, 2]: 414 nM
IC50 (MCF-7 cells): 170 nM
IC50 (T47D cells): 148 nM

CS(=O)(=O)C1(c2cc(-c3cnc(N)cc3C(F)(F)F)nc(N3CCOCC3)n2)CCC1 [Compound S-4]
IC50 [1, 2]: 248 nM
IC50 (T47D cells): 124 nM
